Assay results published in patent publication US20200231638A1, “STABILIZED ANTI-MICROBIAL PEPTIDES” (priority 2015, published 2020).
Bridge positions count the residues as written; N and C are the ends. Square brackets hold non-standard residues; d marks the D form. Peptide text beside a SMILES is read from it. S5 = C=CCCC[C@](C)(N)C(=O)O; Nle = CCCC[C@H](N)C(=O)O

What was measured:
[1] = tested on: B. cereus; type: cell-based, Bacillus cereus
Description: (§1) Antimicrobial Activity Assay:
(§2) The following microbroth dilution protocol was adapted to determine the minimum inhibitory concentration (MIC) of each peptide. First, Mueller-Hinton broth (MHB) was passed through an anion exchange column to remove polyanionic species and generate refined MHB. […] Briefly, bacterial cells was grown overnight in refined MHB at 37° C. and then diluted and allowed to grow again for several hours. Serial dilutions of peptide stocks in water (10 μl) were prepared using clear round-bottom polypropylene 96-well plates. Then 90 μl of bacteria in refined MHB was added to give a final inoculum of 5×10^5 CFU/ml. The plates were then covered with porous tape to reduce evaporation, and incubated for 20-24 hours at 37° C. The MIC is the minimum peptide concentration at which no visible growth was observed.

[2] = tested on: human red blood cells; type: cell-based; conditions: for % Hemolysis at 25 μg/ml: red cells of human, 1 h
Description: FIG. 5 is a series of line graphs depicting the hemolytic activity of magainin II and stapled analogues. Peptides were incubated with 1% (v/v) human red blood cells in phosphate-buffered solution for 1 hour at 37° C. and then the supernatant was isolated and the amount of hemoglobin released was measured at 540 nm. % hemolysis was calculated relative to an untreated control.
Hemolytic Activity Assay:
For the determination of hemolytic activity, human blood samples were centrifuged to isolate red blood cells (RBCs), which are then washed and suspended in phosphate-buffered saline to yield a 1% (v/v) suspension. The suspension was then added to serial dilutions of peptide stocks in water in clear round-bottom polypropylene 96-well plates and the plates were incubated for 1 hour at 37° C. After incubation, the plates were centrifuged and the supernatant was isolated to determine the amount of hemoglobin released using a spectrophotometer (570 nm), according to the equation: % Hemolysis=(Treated Absorbance−Untreated Control Absorbance)/(1% Triton-X100 Treated Absorbance−Untreated Control Absorbance). The minimum hemolytic concentration (MHC) is the peptide concentration at which there is less than 1% hemoglobin release.

[3] = tested on: E. coli; type: cell-based, Escherichia coli
Description: as §1, §2

[4] = tested on: S. aureus; type: cell-based, Staphylococcus aureus
Description: as §1, §2

[5] = tested on: P. aeruginosa; type: cell-based, Pseudomonas aeruginosa
Description: as §1, §2

Structure (SMILES) | MIC B. cereus [1] | MIC E. coli [3] | MIC S. aureus [4] | MIC P. aeruginosa [5] | % Hemolysis at 25 μg/ml [2] | hemolytic activity (in words) [2]
CCCC[C@H](NC(=O)[C@@H](NC(=O)[C@H](CCC(=O)O)NC(=O)CNC(=O)[C@@H](NC(=O)[C@H](Cc1ccccc1)NC(=O)[C@H](C)NC(=O)[C@H](CCCCN)NC(=O)CNC(=O)[C@H](Cc1ccccc1)NC(=O)[C@H](CCCCN)NC(=O)[C@H](CCCCN)NC(=O)[C@]1(C)CCCC=CCCC[C@](C)(NC(=O)[C@H](CCCCN)NC(=O)CNC(=O)[C@@H](NC(=O)CN)[C@@H](C)CC)C(=O)N[C@@H](CC(C)C)C(=O)N[C@@H](Cc2c[nH]cn2)C(=O)N[C@@H](CO)C(=O)N1)C(C)C)[C@@H](C)CC)C(=O)N[C@@H](CC(N)=O)C(=O)N[C@@H](CO)C(N)=O [Mag(i + 4)4] (H-GIGK[S5]LHS[S5]KKFGKAFVGEI[Nle]NS-NH2; staple 5-9) | 6.2 µg/mL | 3.1 µg/mL | 25 µg/mL | 12.5 µg/mL | 17.8% | –
CCCC[C@H](NC(=O)[C@@H](NC(=O)[C@H](CCC(=O)O)NC(=O)CNC(=O)[C@@H](NC(=O)[C@H](Cc1ccccc1)NC(=O)[C@H](C)NC(=O)[C@H](CCCCN)NC(=O)CNC(=O)[C@H](Cc1ccccc1)NC(=O)[C@H](CCCCN)NC(=O)[C@]1(C)CCCC=CCCC[C@](C)(NC(=O)[C@H](Cc2ccccc2)NC(=O)[C@H](CCCCN)NC(=O)CNC(=O)[C@@H](NC(=O)CN)[C@@H](C)CC)C(=O)N[C@@H](Cc2c[nH]cn2)C(=O)N[C@@H](CO)C(=O)N[C@@H](C)C(=O)N1)C(C)C)[C@@H](C)CC)C(=O)N[C@@H](CC(N)=O)C(=O)N[C@@H](CO)C(N)=O [Mag(i + 4)5] (H-GIGKF[S5]HSA[S5]KFGKAFVGEI[Nle]NS-NH2; staple 6-10) | 12.5 µg/mL | 12.5 µg/mL | 25 µg/mL | 50 µg/mL | 13.3% | –
CCCC[C@H](NC(=O)[C@@H](NC(=O)[C@H](CCC(=O)O)NC(=O)CNC(=O)[C@@H](NC(=O)[C@H](Cc1ccccc1)NC(=O)[C@H](C)NC(=O)[C@H](CCCCN)NC(=O)CNC(=O)[C@]1(C)CCCC=CCCC[C@](C)(NC(=O)[C@H](Cc2c[nH]cn2)NC(=O)[C@H](CC(C)C)NC(=O)[C@H](Cc2ccccc2)NC(=O)[C@H](CCCCN)NC(=O)CNC(=O)[C@@H](NC(=O)CN)[C@@H](C)CC)C(=O)N[C@@H](C)C(=O)N[C@@H](CCCCN)C(=O)N[C@@H](CCCCN)C(=O)N1)C(C)C)[C@@H](C)CC)C(=O)N[C@@H](CC(N)=O)C(=O)N[C@@H](CO)C(N)=O [Mag(i + 4)7] (H-GIGKFLH[S5]AKK[S5]GKAFVGEI[Nle]NS-NH2; staple 8-12) | 6.2 µg/mL | 3.1 µg/mL | 6.2 µg/mL | 6.2 µg/mL | 62.5% | –
CCCC[C@H](NC(=O)[C@@H](NC(=O)[C@H](CCC(=O)O)NC(=O)CNC(=O)[C@@H](NC(=O)[C@H](Cc1ccccc1)NC(=O)[C@H](C)NC(=O)[C@H](CCCCN)NC(=O)[C@]1(C)CCCC=CCCC[C@](C)(NC(=O)[C@H](CO)NC(=O)[C@H](Cc2c[nH]cn2)NC(=O)[C@H](CC(C)C)NC(=O)[C@H](Cc2ccccc2)NC(=O)[C@H](CCCCN)NC(=O)CNC(=O)[C@@H](NC(=O)CN)[C@@H](C)CC)C(=O)N[C@@H](CCCCN)C(=O)N[C@@H](CCCCN)C(=O)N[C@@H](Cc2ccccc2)C(=O)N1)C(C)C)[C@@H](C)CC)C(=O)N[C@@H](CC(N)=O)C(=O)N[C@@H](CO)C(N)=O [Mag(i + 4)8, GIGKFLHSXKKFXKAFVGEIBNS] (H-GIGKFLHS[S5]KKF[S5]KAFVGEI[Nle]NS-NH2; staple 9-13) | 3.1 µg/mL | 3.1 µg/mL | 12.5 µg/mL | 3.1 µg/mL | 74.6% | indiscriminate lytic activity

The next lines start with results.

MIC B. cereus [1] | MIC E. coli [3] | MIC S. aureus [4] | MIC P. aeruginosa [5] | Structure (SMILES) | % Hemolysis at 25 μg/ml [2] | hemolytic activity (in words) [2]
12.5 µg/mL | 6.2 µg/mL | >50 µg/mL | >50 µg/mL | CCCC[C@H](NC(=O)[C@@H](NC(=O)[C@H](CCC(=O)O)NC(=O)CNC(=O)[C@@H](NC(=O)[C@H](Cc1ccccc1)NC(=O)[C@H](C)NC(=O)[C@]1(C)CCCC=CCCC[C@](C)(NC(=O)[C@H](C)NC(=O)[C@H](CO)NC(=O)[C@H](Cc2c[nH]cn2)NC(=O)[C@H](CC(C)C)NC(=O)[C@H](Cc2ccccc2)NC(=O)[C@H](CCCCN)NC(=O)CNC(=O)[C@@H](NC(=O)CN)[C@@H](C)CC)C(=O)N[C@@H](CCCCN)C(=O)N[C@@H](Cc2ccccc2)C(=O)NCC(=O)N1)C(C)C)[C@@H](C)CC)C(=O)N[C@@H](CC(N)=O)C(=O)N[C@@H](CO)C(N)=O [Mag(i + 4)9] (H-GIGKFLHSA[S5]KFG[S5]AFVGEI[Nle]NS-NH2; staple 10-14) | 66.9% | –
6.2 µg/mL | 3.1 µg/mL | 6.2 µg/mL | 12.5 µg/mL | CCCC[C@H](NC(=O)[C@@H](NC(=O)[C@H](CCC(=O)O)NC(=O)CNC(=O)[C@@H](NC(=O)[C@H](Cc1ccccc1)NC(=O)[C@]1(C)CCCC=CCCC[C@](C)(NC(=O)[C@H](CCCCN)NC(=O)[C@H](C)NC(=O)[C@H](CO)NC(=O)[C@H](Cc2c[nH]cn2)NC(=O)[C@H](CC(C)C)NC(=O)[C@H](Cc2ccccc2)NC(=O)[C@H](CCCCN)NC(=O)CNC(=O)[C@@H](NC(=O)CN)[C@@H](C)CC)C(=O)N[C@@H](Cc2ccccc2)C(=O)NCC(=O)N[C@@H](CCCCN)C(=O)N1)C(C)C)[C@@H](C)CC)C(=O)N[C@@H](CC(N)=O)C(=O)N[C@@H](CO)C(N)=O [Mag(i + 4)10] (H-GIGKFLHSAK[S5]FGK[S5]FVGEI[Nle]NS-NH2; staple 11-15) | 23.6% | –
6.2 µg/mL | 3.1 µg/mL | 12.5 µg/mL | 6.2 µg/mL | CCCC[C@H](NC(=O)[C@@H](NC(=O)[C@H](CCC(=O)O)NC(=O)CNC(=O)[C@@H](NC(=O)[C@]1(C)CCCC=CCCC[C@](C)(NC(=O)[C@H](CCCCN)NC(=O)[C@H](CCCCN)NC(=O)[C@H](C)NC(=O)[C@H](CO)NC(=O)[C@H](Cc2c[nH]cn2)NC(=O)[C@H](CC(C)C)NC(=O)[C@H](Cc2ccccc2)NC(=O)[C@H](CCCCN)NC(=O)CNC(=O)[C@@H](NC(=O)CN)[C@@H](C)CC)C(=O)NCC(=O)N[C@@H](CCCCN)C(=O)N[C@@H](C)C(=O)N1)C(C)C)[C@@H](C)CC)C(=O)N[C@@H](CC(N)=O)C(=O)N[C@@H](CO)C(N)=O [Mag(i + 4)11] (H-GIGKFLHSAKK[S5]GKA[S5]VGEI[Nle]NS-NH2; staple 12-16) | 17.5% | –
3.1 µg/mL | 3.1 µg/mL | 6.2 µg/mL | 3.1 µg/mL | CCCC[C@H](NC(=O)[C@@H](NC(=O)[C@H](CCC(=O)O)NC(=O)CNC(=O)[C@]1(C)CCCC=CCCC[C@](C)(NC(=O)[C@H](Cc2ccccc2)NC(=O)[C@H](CCCCN)NC(=O)[C@H](CCCCN)NC(=O)[C@H](C)NC(=O)[C@H](CO)NC(=O)[C@H](Cc2c[nH]cn2)NC(=O)[C@H](CC(C)C)NC(=O)[C@H](Cc2ccccc2)NC(=O)[C@H](CCCCN)NC(=O)CNC(=O)[C@@H](NC(=O)CN)[C@@H](C)CC)C(=O)N[C@@H](CCCCN)C(=O)N[C@@H](C)C(=O)N[C@@H](Cc2ccccc2)C(=O)N1)[C@@H](C)CC)C(=O)N[C@@H](CC(N)=O)C(=O)N[C@@H](CO)C(N)=O [Mag(i + 4)12] (H-GIGKFLHSAKKF[S5]KAF[S5]GEI[Nle]NS-NH2; staple 13-17) | 76.8% | –
3.1 µg/mL | 3.1 µg/mL | 6.2 µg/mL | 6.2 µg/mL | CCCC[C@H](NC(=O)[C@@H](NC(=O)[C@H](CCC(=O)O)NC(=O)[C@]1(C)CCCC=CCCC[C@](C)(NC(=O)CNC(=O)[C@H](Cc2ccccc2)NC(=O)[C@H](CCCCN)NC(=O)[C@H](CCCCN)NC(=O)[C@H](C)NC(=O)[C@H](CO)NC(=O)[C@H](Cc2c[nH]cn2)NC(=O)[C@H](CC(C)C)NC(=O)[C@H](Cc2ccccc2)NC(=O)[C@H](CCCCN)NC(=O)CNC(=O)[C@@H](NC(=O)CN)[C@@H](C)CC)C(=O)N[C@@H](C)C(=O)N[C@@H](Cc2ccccc2)C(=O)N[C@@H](C(C)C)C(=O)N1)[C@@H](C)CC)C(=O)N[C@@H](CC(N)=O)C(=O)N[C@@H](CO)C(N)=O [Mag(i + 4)13] (H-GIGKFLHSAKKFG[S5]AFV[S5]EI[Nle]NS-NH2; staple 14-18) | 59.7% | –
